Read-outs that look alike come from different tables or passages of the source.
Experiments:
[1] = cited from earlier work
[2] = treatment periods of up to one year; cited from earlier work
[3] = rat, in vivo, po; cited from earlier work
[4] = hypertensive obese non-diabetic women; cited from earlier work
[5] = person with Type 2 diabetes; metformin 500 mg b.i.d.; combination after 2 months
[6] = after 14 weeks, cited from earlier work
[7] = cited from earlier work; remark: listed apart in the source
[8] = person, Type 2 diabetes; metformin 1000 mg b.i.d.; combination after 3 months
Na/K ATPase = settings: catalytic cycle of Na/K ATPase; cited from earlier work
[9] = NIDDM patients; cited from earlier work
[10] = dietary; STZ-induced diabetic rats; cited from earlier work

Cc1c(C)c2c(c(C)c1O)CC[C@@](C)(CCC[C@H](C)CCC[C@H](C)CCCC(C)C)O2 [vitamin E, free 2R,4′R,8′R-alpha-tocopherol]
non-fatal myocardial infarction ([1]; 400 or 800 I.U. daily, patients with coronary artery disease): dramatic and significant reduction of non-fatal myocardial infarction
side effects versus placebo ([1]; 400 or 800 I.U.): no difference between the alpha-tocopherol treatment (400 or 800 I.U.) or placebo groups for side effects

O=S(=O)([O-])[O-].[O]=[V+2] [vanadyl sulfate]
apparent toxicity [2]: does not appear not to be associated with any apparent toxicity

chromium picolinate
rate of absorption relative to chromium trichloride [3]: about four times greater than chromium trichloride

CN(C)C(=N)NC(=N)N [Metformin alone, N,N-dimethylimidodicarbonimidicdiamide]
blood pressure, plasma insulin, fibrinogen [4]: decreased blood pressure, fasting and glucose-stimulated plasma insulin fibrinogen
Cholesterol [5]: 229
Estimated Blood Sugar [5]: 200 mg/dL
Fasting Blood Sugar [5]: 185 mg/dL
HDL [5]: 52
HbA1c level [5]: 9.7
LDL [5]: 133
Triglycerides [5]: 220
reduction of HbA1c ([6]; 500 mg daily): 0.9%
reduction of HbA1c ([6]; 2000 mg daily): 2.0%
HbA1c level after metformin therapy ([7]; after 29 weeks, alone or in combination with sulfonylurea, improved from 8.6%): 7.1%
effect on serum lipids ([7]; moderately obese Type 2 diabetics): lowering mean fasting serum triglycerides, total cholesterol, and LDL cholesterol levels
HbA1c level [8]: 8.3

[O]=[V]([O-])([O-])[O-] [vanadate]
concentration inhibiting formation of EP (Na/K ATPase): less than 1 micromolar

CC(=O)N[C@@H](CS)C(=O)O [NAC, N-acetylcysteine]
reduction of apolipoprotein A1 [9]: over 20%
development of peripheral neuropathy [10]: appeared to inhibit the development of peripheral neuropathy
